Experimental data published in US11236052B2, “Aminobenzimidazole derivatives, treatments, and methods of inhibiting histone deacetylase” (TRANSLATIONAL DRUG DEVELOPMENT, LLC, priority 2017, dated 2022).
pIC50: −log10 of the molar value. Like-named read-outs stand apart in the source and are kept apart here.

Legend:
[1] = tested on: MM1.S cells; assay: CellTiter-Glo cell viability assay, MM1.S cells; type: cell-based, human; settings: Homo sapiens
Experimental: Cell viability in the presence of varying concentrations of the above listed compounds at different time points was used to assess cytotoxicity and the effect of the compounds on cell proliferation.
(§1) Cell Viability Assay—Cell viability was measured by the CellTiter-GlO® cell viability assay from Promega (Madison, Wis.). The CellTiter-GlO® Luminescent Cell Viability Assay is a homogeneous method to determine the number of viable cells in culture based on quantitation of the ATP present, which signals the presence of metabolically active cells. Following treatment, CellTiter-GlO® is added to treatment wells and incubated at 37° C. luminescence values were measured at using a Molecular Devices Spectramax microplate reader
(§2) Single Agent Studies—Cells were grown to 70% confluency, trypsinized, counted, and seeded in 96 well flat-bottom plates at a final concentration of 2.5×10^3-5×10^3 cells/well (Day 0). Cells were allowed to incubate in growth media for 24 hours. Treatment with the test agents or standard agents began on Day 1 and continued for 72 hours. At the 72 hour timepoint, treatment containing media was removed. Viable cell numbers are quantified by the CellTiter-GlO® cell viability assay as described above. Results from these studies were used to calculate an IC50 value (concentration of drug that inhibits cell growth by 50 percent of control) for each compound.
Data Collection—For single agent and combination studies, data from each experiment was collected and expressed as % Cell Growth using the following calculation: Cell Growth=(ftest/fvehicle)×100
Where ftest is the fluorescence of the tested sample, and fvehicle is the fluorescence of the vehicle in which the drug is dissolved. Dose response graphs and IC50 values were generated using Prism 6 software (GraphPad) using the following equation: […]
Where X is the logarithm of concentration and Y is the response. Y starts at the Bottom and goes to Top with a sigmoid shape.
as §1, with “CellTiter-Glo®” for “CellTiter-GlO®”, “assay” for “assay from”, “reader.” for “reader”
as §2, with “agents” for “agents or standard agents”, “72-hour time point, treatment-containing” for “72 hour timepoint, treatment containing”, “CellTiter-Glo®” for “CellTiter-GlO®”, “above. Experiments were run with triplicate concentrations to determine growth inhibitory activity.” for “above.”
(§3) Data Collection—For single agent and combination studies, data from each experiment was collected and expressed as % Cell Growth using the following calculation: % Cell Growth=(ftest/fvehicle)×100
(§4) Where ftest is the luminescence of the tested sample, and fvehicle is the luminescence of the vehicle in which the drug is dissolved. Dose response graphs and IC50 values were generated using Prism 6 software (GraphPad).

[2] = tested on: U251; assay: CellTiter-Glo cell viability assay, U251; type: cell-based; settings: Homo sapiens, U-251; GBM, U251, 72 hours
Experimental: as §1, with “CellTiter-Glo®” for “CellTiter-GlO®”, “assay” for “assay from”, “reader.” for “reader”
as §2, with “agents” for “agents or standard agents”, “72-hour time point, treatment-containing” for “72 hour timepoint, treatment containing”, “CellTiter-Glo®” for “CellTiter-GlO®”, “above. Experiments were run with triplicate concentrations to determine growth inhibitory activity.” for “above.”
as §3, §4

[3] = tested on: MDA-157; assay: CellTiter-Glo cell viability assay, MDA-157; type: cell-based; settings: Breast, MDA-157, 72 hours
Experimental: as §1, with “CellTiter-Glo®” for “CellTiter-GlO®”, “assay” for “assay from”, “reader.” for “reader”
as §2, with “agents” for “agents or standard agents”, “72-hour time point, treatment-containing” for “72 hour timepoint, treatment containing”, “CellTiter-Glo®” for “CellTiter-GlO®”, “above. Experiments were run with triplicate concentrations to determine growth inhibitory activity.” for “above.”
as §3, §4

[4] = tested on: MDA468; assay: CellTiter-Glo cell viability assay, MDA468; type: cell-based; settings: Breast, MDA468, 72 hours
Experimental: as §1, with “CellTiter-Glo®” for “CellTiter-GlO®”, “assay” for “assay from”, “reader.” for “reader”
as §2, with “agents” for “agents or standard agents”, “72-hour time point, treatment-containing” for “72 hour timepoint, treatment containing”, “CellTiter-Glo®” for “CellTiter-GlO®”, “above. Experiments were run with triplicate concentrations to determine growth inhibitory activity.” for “above.”
as §3, §4

[5] = tested on: GIST48; assay: CellTiter-Glo cell viability assay, GIST48; type: cell-based; settings: Homo sapiens; GIST, GIST48, 72 hours
Experimental: as §1, with “CellTiter-Glo®” for “CellTiter-GlO®”, “assay” for “assay from”, “reader.” for “reader”
as §2, with “agents” for “agents or standard agents”, “72-hour time point, treatment-containing” for “72 hour timepoint, treatment containing”, “CellTiter-Glo®” for “CellTiter-GlO®”, “above. Experiments were run with triplicate concentrations to determine growth inhibitory activity.” for “above.”
as §3, §4

[6] = tested on: GIST882; assay: CellTiter-Glo cell viability assay, GIST882; type: cell-based; settings: Homo sapiens; GIST, GIST882, 72 hours
Experimental: as §1, with “CellTiter-Glo®” for “CellTiter-GlO®”, “assay” for “assay from”, “reader.” for “reader”
as §2, with “agents” for “agents or standard agents”, “72-hour time point, treatment-containing” for “72 hour timepoint, treatment containing”, “CellTiter-Glo®” for “CellTiter-GlO®”, “above. Experiments were run with triplicate concentrations to determine growth inhibitory activity.” for “above.”
as §3, §4

[7] = tested on: AN3CA; assay: CellTiter-Glo cell viability assay, AN3CA; type: cell-based; settings: Homo sapiens, AN3-CA, Uterine, 72 hours
Experimental: as §1, with “CellTiter-Glo®” for “CellTiter-GlO®”, “assay” for “assay from”, “reader.” for “reader”
as §2, with “agents” for “agents or standard agents”, “72-hour time point, treatment-containing” for “72 hour timepoint, treatment containing”, “CellTiter-Glo®” for “CellTiter-GlO®”, “above. Experiments were run with triplicate concentrations to determine growth inhibitory activity.” for “above.”
as §3, §4

[8] = tested on: SKUT-1; assay: CellTiter-Glo cell viability assay, SKUT-1; type: cell-based; settings: Homo sapiens, SK-UT-1; Uterine, SKUT-1, 72 hours
Experimental: as §1, with “CellTiter-Glo®” for “CellTiter-GlO®”, “assay” for “assay from”, “reader.” for “reader”
as §2, with “agents” for “agents or standard agents”, “72-hour time point, treatment-containing” for “72 hour timepoint, treatment containing”, “CellTiter-Glo®” for “CellTiter-GlO®”, “above. Experiments were run with triplicate concentrations to determine growth inhibitory activity.” for “above.”
as §3, §4

[9] = tested on: Ishikawa; assay: CellTiter-Glo cell viability assay, Ishikawa; type: cell-based; settings: Homo sapiens, Uterine, 72 hours
Experimental: as §1, with “CellTiter-Glo®” for “CellTiter-GlO®”, “assay” for “assay from”, “reader.” for “reader”
as §2, with “agents” for “agents or standard agents”, “72-hour time point, treatment-containing” for “72 hour timepoint, treatment containing”, “CellTiter-Glo®” for “CellTiter-GlO®”, “above. Experiments were run with triplicate concentrations to determine growth inhibitory activity.” for “above.”
as §3, §4

[10] = tested on: SNG-M; assay: CellTiter-Glo cell viability assay, SNG-M; type: cell-based; settings: Uterine, 72 hours
Experimental: as §1, with “CellTiter-Glo®” for “CellTiter-GlO®”, “assay” for “assay from”, “reader.” for “reader”
as §2, with “agents” for “agents or standard agents”, “72-hour time point, treatment-containing” for “72 hour timepoint, treatment containing”, “CellTiter-Glo®” for “CellTiter-GlO®”, “above. Experiments were run with triplicate concentrations to determine growth inhibitory activity.” for “above.”
as §3, §4

[11] = tested on: H929; assay: CellTiter-Glo cell viability assay, H929; type: cell-based; settings: Homo sapiens, NCI-H929; Myeloma, H929, 72 hours
Experimental: as §1, with “CellTiter-Glo®” for “CellTiter-GlO®”, “assay” for “assay from”, “reader.” for “reader”
as §2, with “agents” for “agents or standard agents”, “72-hour time point, treatment-containing” for “72 hour timepoint, treatment containing”, “CellTiter-Glo®” for “CellTiter-GlO®”, “above. Experiments were run with triplicate concentrations to determine growth inhibitory activity.” for “above.”
as §3, §4

[12] = tested on: KMS-11; assay: CellTiter-Glo cell viability assay, KMS-11; type: cell-based; settings: Homo sapiens; Myeloma, KMS-11, 72 hours
Experimental: as §1, with “CellTiter-Glo®” for “CellTiter-GlO®”, “assay” for “assay from”, “reader.” for “reader”
as §2, with “agents” for “agents or standard agents”, “72-hour time point, treatment-containing” for “72 hour timepoint, treatment containing”, “CellTiter-Glo®” for “CellTiter-GlO®”, “above. Experiments were run with triplicate concentrations to determine growth inhibitory activity.” for “above.”
as §3, §4

[13] = tested on: RPMI-8226; assay: CellTiter-Glo cell viability assay, RPMI-8226; type: cell-based; settings: Homo sapiens; Myeloma, RPMI-8226, 72 hours
Experimental: as §1, with “CellTiter-Glo®” for “CellTiter-GlO®”, “assay” for “assay from”, “reader.” for “reader”
as §2, with “agents” for “agents or standard agents”, “72-hour time point, treatment-containing” for “72 hour timepoint, treatment containing”, “CellTiter-Glo®” for “CellTiter-GlO®”, “above. Experiments were run with triplicate concentrations to determine growth inhibitory activity.” for “above.”
as §3, §4

[14] = tested on: MV411; assay: CellTiter-Glo cell viability assay, MV411; type: cell-based; settings: Homo sapiens, MV4-11; AML, MV411, 72 hours
Experimental: as §1, with “CellTiter-Glo®” for “CellTiter-GlO®”, “assay” for “assay from”, “reader.” for “reader”
as §2, with “agents” for “agents or standard agents”, “72-hour time point, treatment-containing” for “72 hour timepoint, treatment containing”, “CellTiter-Glo®” for “CellTiter-GlO®”, “above. Experiments were run with triplicate concentrations to determine growth inhibitory activity.” for “above.”
as §3, §4

[15] = tested on: SUDHL-4; assay: CellTiter-Glo cell viability assay, SUDHL-4; type: cell-based; settings: Homo sapiens, SU-DHL-4; Lymphoma, SUDHL-4, 72 hours
Experimental: as §1, with “CellTiter-Glo®” for “CellTiter-GlO®”, “assay” for “assay from”, “reader.” for “reader”
as §2, with “agents” for “agents or standard agents”, “72-hour time point, treatment-containing” for “72 hour timepoint, treatment containing”, “CellTiter-Glo®” for “CellTiter-GlO®”, “above. Experiments were run with triplicate concentrations to determine growth inhibitory activity.” for “above.”
as §3, §4

[16] = tested on: SUDHL-10; assay: CellTiter-Glo cell viability assay, SUDHL-10; type: cell-based; settings: Homo sapiens, SU-DHL10; Lymphoma, SUDHL-10, 72 hours
Experimental: as §1, with “CellTiter-Glo®” for “CellTiter-GlO®”, “assay” for “assay from”, “reader.” for “reader”
as §2, with “agents” for “agents or standard agents”, “72-hour time point, treatment-containing” for “72 hour timepoint, treatment containing”, “CellTiter-Glo®” for “CellTiter-GlO®”, “above. Experiments were run with triplicate concentrations to determine growth inhibitory activity.” for “above.”
as §3, §4

[17] = tested on: RAMOS; assay: CellTiter-Glo cell viability assay, RAMOS; type: cell-based; settings: Homo sapiens, Lymphoma, 72 hours
Experimental: as §1, with “CellTiter-Glo®” for “CellTiter-GlO®”, “assay” for “assay from”, “reader.” for “reader”
as §2, with “agents” for “agents or standard agents”, “72-hour time point, treatment-containing” for “72 hour timepoint, treatment containing”, “CellTiter-Glo®” for “CellTiter-GlO®”, “above. Experiments were run with triplicate concentrations to determine growth inhibitory activity.” for “above.”
as §3, §4

[18] = tested on: Mino; assay: CellTiter-Glo cell viability assay, Mino; type: cell-based; settings: Homo sapiens, Lymphoma, 72 hours
Experimental: as §1, with “CellTiter-Glo®” for “CellTiter-GlO®”, “assay” for “assay from”, “reader.” for “reader”
as §2, with “agents” for “agents or standard agents”, “72-hour time point, treatment-containing” for “72 hour timepoint, treatment containing”, “CellTiter-Glo®” for “CellTiter-GlO®”, “above. Experiments were run with triplicate concentrations to determine growth inhibitory activity.” for “above.”
as §3, §4

[19] = tested on: H460; assay: CellTiter-Glo cell viability assay, H460; type: cell-based; settings: Homo sapiens, NCI-H460; NSCLC, H460, 72 hours
Experimental: as §1, with “CellTiter-Glo®” for “CellTiter-GlO®”, “assay” for “assay from”, “reader.” for “reader”
as §2, with “agents” for “agents or standard agents”, “72-hour time point, treatment-containing” for “72 hour timepoint, treatment containing”, “CellTiter-Glo®” for “CellTiter-GlO®”, “above. Experiments were run with triplicate concentrations to determine growth inhibitory activity.” for “above.”
as §3, §4

[20] = tested on: H1437; assay: CellTiter-Glo cell viability assay, H1437; type: cell-based; settings: Homo sapiens, NCI-H1437; NSCLC, H1437, 72 hours
Experimental: as §1, with “CellTiter-Glo®” for “CellTiter-GlO®”, “assay” for “assay from”, “reader.” for “reader”
as §2, with “agents” for “agents or standard agents”, “72-hour time point, treatment-containing” for “72 hour timepoint, treatment containing”, “CellTiter-Glo®” for “CellTiter-GlO®”, “above. Experiments were run with triplicate concentrations to determine growth inhibitory activity.” for “above.”
as §3, §4

[21] = % PPB, rat; type: in vitro ADME; settings: plasma; rat (r)

Compound O=C(NO)c1ccc(Nc2nc3ccccc3n2C2CCCCCC2)cc1 [ID #3, 4-((1-cycloheptyl-1H-benzo[d]imidazol-2-yl)amino)-N-hydroxybenzamide] has a pIC50 ([1]; MM1.S cells, 72 hours treatment, read-out: IC50 in MM1.S) of 5.68, a pIC50 ([1]; Myeloma, MM1.S, 72 hours (Table 3), read-out: IC50) of 5.68 and a pIC50 [2] of 5.39. For the same compound, the pIC50 [3] was 5.12, the pIC50 [4] was 5.03 and the pIC50 [5] was 5.37. For the same compound, the pIC50 [6] was 4.75, the pIC50 [7] was 5.34 and the pIC50 [8] was 5.02. For the same compound, the pIC50 [9] was 5.36, the pIC50 [10] was 5.09 and the pIC50 [11] was 5.86. For the same compound, the pIC50 [12] was 5.52, the pIC50 [13] was 5.82 and the pIC50 [14] was 5.56. For the same compound, the pIC50 [15] was 5.38, the pIC50 [16] was 5.82 and the pIC50 [17] was 5.54. It also gave a pIC50 [18] of 5.38, a pIC50 [19] of 4.98 and a pIC50 [20] of 5.32. For the same compound, the fraction unbound [21] was 0.0055.
